In patent publication US8541442B2, “Indole derivatives as anticancer agents” (Janssen Pharmaceutica N.V., priority 2009, dated 2013):
Read-outs that look alike come from different tables or passages of the source.

Legend:
[1] = tested on: A2780 ovarian cancer cells; assay: Alamar Blue cell proliferation assay, A2780; format: cell-based, human; conditions: 4-day incubation; for IC50: Homo sapiens, A2780, 96 h, read-out: A2780 cell proliferation inhibition pIC50 (converted)
Method: The human A2780 ovarian cancer cells were a kind gift from Dr. T. C. Hamilton (Fox Chase Cancer Centre, Pennsylvania, U.S.A.). The cells were cultured in RPMI 1640 medium supplemented with 2 mM L-Glutamine, 50 μg/ml gentamicin and 10% fetal calf serum.
Potassium Phosphate Buffer 0.1 M (PPB) was made as follows: 2.72 gram KH2PO4 and 13.86 gram K2HPO4 were dissolved in 500 ml milli-Q H2O, the pH was adjusted to pH 7.4 and the volume was brought to 1 liter with milli-Q H2O; the buffer was filter sterilised and stored at room temperature. Resazurin stock solution (PPB-A) was prepared fresh by dissolving 45 mg resazurin in 15 ml PBS. 30 mM potassium ferricyanide (PPB-B) was prepared by dissolving 0.987 gram potassium ferricyanide in 100 ml PPB. 30 mM potassium ferrocyanide (PPB-C) was prepared by dissolving 1.266 gram potassium ferrocyanide in 100 ml PPB.
Mixture of PPB-A, PPB-B and PPB-C was prepared by mixing equal volumes of the respective solutions. Resazurin work solution (herein termed “Alamar Blue” solution) was prepared by diluting said mixture 20×(vol/vol) in PPB and filter sterilising; the Alamar Blue solution could be kept at 4° C. for a maximum of 2 weeks.
(§1) For experiments in 384 wells plates the cells were seeded at a density of 5×10^3 cells/ml in Falcon 384-well culture plates (Life Technologies, Merelbeke, Belgium), black with clear bottom, in 45 μl culture medium. Cells were allowed to adhere to plastic for 24 hr. The tested compound was pre-diluted (1/50 in culture medium) and 5 μl pre-diluted compound was added to the wells. Following 4-day incubation, 10 μl of the Alamar Blue solution was added to each well and the cells were further incubated for 5 hrs (A2780) at 37° C. The fluorescence intensity was measured for each well with a Fluorescence plate reader (Fluorskan, Labsystems, 540 nm excitation and 590 nm emission)
(§2) The antiproliferative activity was calculated as percentage of remaining viable cells in treated versus control (untreated cells) conditions. Within an experiment, the result for each experimental condition is the mean of 3 replicate wells. When appropriate, the experiments were repeated to establish full concentration-response curves. When appropriate, IC50-values (concentration of the drug, needed to reduce cell growth to 50% of the control) were computed using probit analysis for graded data (Finney, D. J., Probit Analyses, 2nd Ed. Chapter 10, Graded Responses, Cambridge University Press, Cambridge 1962). Herein the effects of test compounds are expressed as pIC50 (the negative log value of the IC50-value (M)) (see Table 5A).

human U87 glioma tumor = assay: In vivo anti tumour effects, U87 glioma xenograft; conditions: U87 xenograft in NMRI Nude mice, 20 mg/kg p.o. QD for 5 days; for response vs control in vivo at 20 mg/kg: Mus musculus, U-87 MG, po
Method: Immuno-deficient (athymic) male NMRI Nude (Nu/Nu) mice (20-25 g obtained from Janvier, France) were used for these studies. Initial weight was approximately […]. All animals were maintained under SPF “full barrier” conditions with free access to food and water. Mice were group housed under a 12-h light:dark cycle (lights on at 06:00 h) at a temperature of 19 to 22° C. and 35 to 40% humidity in Techniplast type-3 IVC cages. Mice were fed a standard Laboratory chow. All experiments were carried out in accordance with the European Communities Council Directives (86/609/EEC) and had to be approved by the local ethical committee. For an established tumor xenograft model (tumor volume ˜200 mm^3), mice were randomized according to tumor volumes, with 5 mice per treatment group.
The human U87 glioma tumor cell line was derived from a patient. Cells were cultured at 37° C. in a humidified atmosphere (5% CO2, 95% air), in DMEM medium supplemented with 2 mM L-glutamine, 2.0 mM sodium pyruvate, 25 units/ml penicillin/25 μg/ml streptomycin and 10% fetal bovine serum. Cells were maintained as cell monolayer cultures, being passaged twice weekly at 3×10^6 cells per T175 flask using the following procedure. Briefly cells were washed with PBS (without Mg^2+, Ca^2+), before addition of trypsin-EDTA to the culture flasks. After detachment of cells the trypsin-EDTA was inactivated by addition of complete medium. Cell suspension was then transferred to 50 ml Falcon tube and centrifuged for 3 min at 1200 rpm. Medium was aspirated, with the cells being re-suspended in an appropriate volume of complete medium. The cells were counted in a haemocytometer and their viability was assessed by 0.25% trypan blue exclusion. An appropriate volume of cell suspension was then added to either a new T175 culture flask(s) or roller bottle containing fresh medium. For large scale-up growth of U87 tumor cells, an appropriate number of roller bottles were seeded with 0.5 to 1×10^7 cells 1 week prior to inoculation of mice. The medium was changed twice during this period, with the last change being the day prior to cell injection. Cells were collected as described above, with the exception that after centrifugation, the cells were re-suspended in cold (4° C.) serum-free medium. Mice were injected in the inguinal region with 1×10^7 cells total in a 200 μl volume.
Human U87 glioma cells were injected directly into the inguinal region of the male NMRI Nude mice (1×10^7 cells/200 μl/animal) on day 0 (D0). On day 7-10 (can vary due to tumor take/growth between cell batches) when tumor volume had reached an approximate average of 200 mm^3, mice were randomized according to tumor volume, with 5 mice per treatment group. Mice were then treated once daily (QD) with either vehicle (10% HP-β-CD) or vehicle containing test compound (20 mg/kg) by gavage (p.o.) administered in a volume of 10 ml/kg body weight for 5 days. Specific tumor measurements were taken on day 6 (24 hours post 5th dose) and then again on day 10. Tumor re-growth (after dosing has stopped) was monitored so that the time-to-reach a volume of 2000 mm^3 (TTR2000) can be recorded. This gives extra information on the duration of drug action on the tumor growth. In general, tumor size and body weights were measured twice weekly, with mice monitored daily for clinical signs of toxicity for the duration of the treatment. Clinical signs of toxicity included (but not limited to), persistent anorexia or dehydration, posture, moribund, lethargy, hypothermia and/or laboured respiration (according to the UKCCCR guidelines for welfare of animals in experimental neoplasia (The UKCCCR (UK Coordinating Committee on Cancer Research) guidelines for the welfare of animals in experimental neoplasia (July 1997); and Workman, P. et al. UKCCCR guideline. Br. J. Cancer. 1998, 77: 1-10). […]

[2] = tested on: non-small cell lung cancer cell line H1299; assay: Alamar Blue cell proliferation assay, H1299; format: cell-based; conditions: for H1299 cell proliferation inhibition pIC50: H1299 cells; for IC50: Homo sapiens, NCI-H1299, H1299 cells, read-out: H1299 cell proliferation inhibition pIC50 (converted)
Method: as §1, §2
Compounds were also tested according to the above protocol but using other cell lines: colorectal cancer cell line HCT116, non-small cell lung cancer cell line H1299, human prostate cancer cell line DU145.

[3] = day 6 after start dosing, 20 mg/kg
[4] = day 10 after start dosing, 20 mg/kg
[5] = 144 h, day 6 after start dosing, read-out: % T/C day 6
[6] = 240 h, day 10 after start dosing, read-out: % T/C day 10

SMILES	A2780 cell proliferation inhibition pIC50 [1]	% T/C day 6 (human U87 glioma tumor; [3])	% T/C day 10 (human U87 glioma tumor; [4])	H1299 cell proliferation inhibition pIC50 [2]	% T/C day 6 (human U87 glioma tumor; day 6 after start dosing)	% T/C day 10 (human U87 glioma tumor; day 10 after start dosing)	IC50 [1]	IC50 [2]	response vs control in vivo at 20 mg/kg (human U87 glioma tumor; [5])	response vs control in vivo at 20 mg/kg (human U87 glioma tumor; [6])
Cc1cc(Nc2ccnc3c2CCC3O)ccc1NCCc1c[nH]c2c(C(C)O)cccc12 (single isomer, unassigned) [Compound 12]	7.20	64%	71%	5.2	–	–	–	–	–	–
Cc1cc(Nc2ccnc3c2CCC3O)ccc1NCCc1c[nH]c2c(C(C)O)cccc12 (single isomer, unassigned) [Compound 15]	7.27	53%	88%	5.82	–	–	–	–	–	–
Cc1cc(Nc2ccnc3c2CCC3O)ccc1NCCc1c[nH]c2c(CCO)cccc12 (single isomer, unassigned) [Compound 23]	6.52	–	–	5.61	72%	95%	–	–	–	–
COC1CCc2c(Nc3ccc(NCCc4c[nH]c5c(C(C)(C)O)cccc45)cc3)ccnc21 (single isomer, unassigned) [Compound 24]	–	60%	1%	–	–	–	0.0661 µM	0.234 µM	–	–
COC1CCc2c(Nc3ccc(NCCc4c[nH]c5c(C(C)(C)O)cccc45)cc3)ccnc21 (single isomer, unassigned) [Compound 25]	–	330%	−3%	–	–	–	–	–	–	–
Cc1cc(Nc2ccnc3c2CCC3(C)O)ccc1NCCc1c[nH]c2c(C(C)(C)O)cccc12 (single isomer, unassigned) [Compound 26]	7.11	354%	−11%	6.27	–	–	–	–	–	–
Cc1cc(Nc2ccnc3c2CCC3(C)O)ccc1NCCc1c[nH]c2c(C(C)(C)O)cccc12 (single isomer, unassigned) [Compound 27]	–	193%	22%	–	–	–	0.141 µM	1.02 µM	–	–
COC1CCc2c(Nc3ccc(NCCc4c[nH]c5c(C(C)(C)O)cccc45)c(C)c3)ccnc21 (single isomer, unassigned) [Compound 28]	6.89	−280%	−10%	6.73	–	–	–	–	–	–
COC1CCc2c(Nc3ccc(NCCc4c[nH]c5c(C(C)(C)O)cccc45)c(C)c3)ccnc21 (single isomer, unassigned) [Compound 29]	7.14	−196%	−13%	6.67	–	–	–	–	–	–
CC(C)(O)c1cccc2c(CCNc3ccc(Nc4ccnc5c4CCC5(C)O)cc3)c[nH]c12 (single isomer, unassigned) [Compound 30]	7.04	−61%	−10%	6.02	–	–	–	–	–	–
CC(C)(O)c1cccc2c(CCNc3ccc(Nc4ccnc5c4CCC5(C)O)cc3)c[nH]c12 (single isomer, unassigned) [Compound 31]	6.84	179%	1%	5.84	–	–	–	–	–	–
Cc1cc(Nc2ccnc3c2CCC3(C)O)ccc1NCCc1c[nH]c2c(C(C)(C)O)cccc12 (centres unmarked) [Compound 1]	–	–	–	–	–	–	0.115 µM	0.871 µM	17%	8%
Cc1cc(Nc2ccncc2)ccc1NCCc1c[nH]c2c(C(C)(C)O)cccc12 [Compound 2]	–	–	–	–	–	–	0.0417 µM	1.15 µM	14%	-0.23%
Cc1cc(Nc2ccnc3c2CCC3=O)ccc1NCCc1c[nH]c2c(C(C)O)cccc12 (centres unmarked) [Compound 4]	–	–	–	–	–	–	0.182 µM	3.72 µM	77%	129%
Cc1cc(Nc2ccnc(CO)c2)ccc1NCCc1c[nH]c2c(C(C)O)cccc12 (centres unmarked) [Compound 5]	–	–	–	–	–	–	0.0525 µM	5.89 µM	103%	67%
OCc1cccc2c(CCNc3ccc(Nc4ccnc5c4CCC5O)cc3)c[nH]c12 (centres unmarked) [Compound 6]	–	–	–	–	–	–	0.214 µM	9.33 µM	105%	99%
C=C(C)c1cccc2c(CCNc3ccc(Nc4ccnc5c4CCC5OC)cc3)c[nH]c12 (centres unmarked) [Compound 7]	–	–	–	–	–	–	0.11 µM	0.407 µM	–	–
Cc1cc(Nc2ccnc3c2CCC3O)ccc1NCCc1c[nH]c2c(CCC(C)O)cccc12 (centres unmarked) [Compound 9]	–	–	–	–	–	–	0.141 µM	6.76 µM	145%	113%
Cc1cc(Nc2ccnc3c2CCC3(C)O)ccc1NCCc1c[nH]c2c(C(C)O)cccc12 (centres unmarked) [Compound 10]	6.70	–	–	5.68	96%	71%	–	–	–	–
Cc1cc(Nc2ccnc3c2CCC3O)ccc1NCCc1c[nH]c2c(C(C)(C)O)cccc12 (centres unmarked) [Compound 20]	–	–	–	5.72	–	–	0.0513 µM	–	–	–
